Data on six compounds can be found in PMC6436327, “Inhibition of Cytochrome P450 Activities by Sophora flavescens Extract and Its Prenylated Flavonoids in Human Liver Microsomes” (Evidence-based Complementary and Alternative Medicine : eCAM, 2019).

Common to all, as to format: biochemical
The target in one series is T1, CYP2D6 (Homo sapiens, UniProt P10635).
T1 construct: native enzyme in pooled human liver microsomes, dextromethorphan O-demethylation probe
In words: dextromethorphan to dextrorphan, LC-MS/MS. Particulars: microsomes, read-out: IC50 value / Kushenol A. The text has this: dextromethorphan to dextrorphan, LC-MS/MS on CYP2D6

For a further series, the target named is T2, CYP1A2 (Homo sapiens, UniProt P05177).
T2 construct: native enzyme in pooled human liver microsomes, phenacetin O-deethylation probe
T2 sequence (P05177 2-516): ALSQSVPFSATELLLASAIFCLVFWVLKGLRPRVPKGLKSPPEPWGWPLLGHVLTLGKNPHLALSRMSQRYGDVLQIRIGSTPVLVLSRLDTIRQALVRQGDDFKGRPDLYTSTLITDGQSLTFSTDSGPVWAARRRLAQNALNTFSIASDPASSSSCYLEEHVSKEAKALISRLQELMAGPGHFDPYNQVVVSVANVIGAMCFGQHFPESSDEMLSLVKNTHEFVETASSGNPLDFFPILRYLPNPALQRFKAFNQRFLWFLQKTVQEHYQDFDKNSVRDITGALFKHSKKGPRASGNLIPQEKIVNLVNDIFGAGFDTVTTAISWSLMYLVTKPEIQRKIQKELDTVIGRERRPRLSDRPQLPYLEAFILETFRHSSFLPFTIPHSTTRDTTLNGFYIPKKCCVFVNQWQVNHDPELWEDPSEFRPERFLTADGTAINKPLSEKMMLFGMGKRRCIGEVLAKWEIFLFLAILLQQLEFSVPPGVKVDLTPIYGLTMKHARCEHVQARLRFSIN
In words: phenacetin to acetaminophen, LC-MS/MS. The following applies: microsomes. The text has this: phenacetin to acetaminophen, LC-MS/MS on CYP1A2

A further series addresses T3, CYP2B6 (Homo sapiens, UniProt P20813).
T3 construct: native enzyme in pooled human liver microsomes, bupropion 6-hydroxylation probe
T3 sequence (P20813 1-491): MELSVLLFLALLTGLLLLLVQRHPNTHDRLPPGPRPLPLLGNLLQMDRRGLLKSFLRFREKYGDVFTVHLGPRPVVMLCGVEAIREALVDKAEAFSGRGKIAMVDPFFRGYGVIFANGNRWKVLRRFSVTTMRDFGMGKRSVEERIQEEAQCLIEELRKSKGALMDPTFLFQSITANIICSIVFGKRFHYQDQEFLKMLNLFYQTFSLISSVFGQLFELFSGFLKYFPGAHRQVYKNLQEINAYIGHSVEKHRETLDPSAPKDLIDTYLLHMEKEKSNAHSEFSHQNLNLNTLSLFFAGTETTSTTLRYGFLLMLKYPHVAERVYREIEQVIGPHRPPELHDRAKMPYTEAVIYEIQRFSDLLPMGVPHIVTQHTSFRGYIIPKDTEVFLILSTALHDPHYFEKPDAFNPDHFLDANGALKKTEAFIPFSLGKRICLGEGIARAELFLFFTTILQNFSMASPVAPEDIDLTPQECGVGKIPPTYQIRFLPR
In words: bupropion 6-hydroxylation, LC-MS/MS. Particulars: microsomes. The text has this:
bupropion 6-hydroxylation, LC-MS/MS on CYP2B6

For a further series, the target named is T4, CYP2C9 (Homo sapiens, UniProt P11712).
T4 construct: methods text says tolbutamide
T4 sequence (P11712 whole entry): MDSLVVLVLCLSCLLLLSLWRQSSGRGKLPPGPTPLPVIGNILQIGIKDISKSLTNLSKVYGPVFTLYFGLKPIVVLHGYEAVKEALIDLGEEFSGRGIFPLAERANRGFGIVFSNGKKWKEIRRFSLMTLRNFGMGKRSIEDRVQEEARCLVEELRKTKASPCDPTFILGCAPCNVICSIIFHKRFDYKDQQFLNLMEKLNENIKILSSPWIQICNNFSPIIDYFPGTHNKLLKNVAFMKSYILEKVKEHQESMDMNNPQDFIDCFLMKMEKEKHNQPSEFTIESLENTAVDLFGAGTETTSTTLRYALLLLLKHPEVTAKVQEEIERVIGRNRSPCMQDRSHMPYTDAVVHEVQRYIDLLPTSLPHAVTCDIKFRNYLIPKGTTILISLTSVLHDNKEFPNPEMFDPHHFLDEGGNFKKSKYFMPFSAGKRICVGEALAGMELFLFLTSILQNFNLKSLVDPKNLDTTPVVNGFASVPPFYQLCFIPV
In words: diclofenac hydroxylation, LC-MS/MS. Particulars: microsomes. The source says: diclofenac hydroxylation, LC-MS/MS on CYP2C9

A further series addresses T5, CYP2C8 (Homo sapiens, UniProt P10632).
T5 construct: methods text says paclitaxel
T5 sequence (P10632 1-490): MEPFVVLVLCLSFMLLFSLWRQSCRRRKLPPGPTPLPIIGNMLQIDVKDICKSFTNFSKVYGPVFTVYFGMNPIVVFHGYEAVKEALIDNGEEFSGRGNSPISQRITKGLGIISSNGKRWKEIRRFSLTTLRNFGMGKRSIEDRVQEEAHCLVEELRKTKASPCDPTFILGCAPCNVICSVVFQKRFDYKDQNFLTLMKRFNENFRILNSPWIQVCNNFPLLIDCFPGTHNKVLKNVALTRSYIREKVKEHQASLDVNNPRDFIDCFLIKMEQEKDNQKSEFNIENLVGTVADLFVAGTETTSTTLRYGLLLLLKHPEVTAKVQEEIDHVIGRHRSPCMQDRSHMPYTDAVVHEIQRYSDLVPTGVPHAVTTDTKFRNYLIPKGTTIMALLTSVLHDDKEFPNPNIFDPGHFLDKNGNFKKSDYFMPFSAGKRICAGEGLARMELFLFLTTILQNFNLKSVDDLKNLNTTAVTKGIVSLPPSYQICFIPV
In words: rosiglitazone hydroxylation, LC-MS/MS. Particulars: microsomes. The source says:
rosiglitazone hydroxylation, LC-MS/MS on CYP2C8

In the next series the target is T6, CYP2C19 (Homo sapiens, UniProt P33261).
T6 construct: native enzyme in pooled human liver microsomes, S-mephenytoin 4-hydroxylation probe (methods text misprints CYP2C18)
T6 sequence (P33261 whole entry): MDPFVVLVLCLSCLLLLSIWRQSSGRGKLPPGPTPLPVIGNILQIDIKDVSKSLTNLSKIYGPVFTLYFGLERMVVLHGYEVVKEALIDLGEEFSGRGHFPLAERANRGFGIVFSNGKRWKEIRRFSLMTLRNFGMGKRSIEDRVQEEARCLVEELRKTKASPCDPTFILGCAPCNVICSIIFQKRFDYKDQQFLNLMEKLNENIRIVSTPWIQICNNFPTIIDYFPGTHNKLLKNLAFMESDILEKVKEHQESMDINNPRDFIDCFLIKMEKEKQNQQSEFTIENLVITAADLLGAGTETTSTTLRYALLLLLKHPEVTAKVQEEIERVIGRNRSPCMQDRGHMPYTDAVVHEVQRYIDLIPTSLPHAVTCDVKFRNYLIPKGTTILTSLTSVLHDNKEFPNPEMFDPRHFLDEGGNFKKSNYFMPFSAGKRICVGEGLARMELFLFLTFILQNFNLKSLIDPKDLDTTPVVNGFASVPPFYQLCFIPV
In words: S-mephenytoin 4-hydroxylation, LC-MS/MS. The following applies: microsomes, read-out: IC50 value / Kushenol A. The source says:
S-mephenytoin 4-hydroxylation, LC-MS/MS on CYP2C19

Series [1] deals with T7, CYP3A4 (Homo sapiens, UniProt P08684). Briefly: midazolam […]'-hydroxylation, LC-MS/MS. The arrangement: native enzyme in pooled human liver microsomes, midazolam 1'-hydroxylation probe (CYP3A5 may contribute). The following applies: microsomes, read-out: IC50 value / Kushenol A.
T7 sequence (P08684 2-503): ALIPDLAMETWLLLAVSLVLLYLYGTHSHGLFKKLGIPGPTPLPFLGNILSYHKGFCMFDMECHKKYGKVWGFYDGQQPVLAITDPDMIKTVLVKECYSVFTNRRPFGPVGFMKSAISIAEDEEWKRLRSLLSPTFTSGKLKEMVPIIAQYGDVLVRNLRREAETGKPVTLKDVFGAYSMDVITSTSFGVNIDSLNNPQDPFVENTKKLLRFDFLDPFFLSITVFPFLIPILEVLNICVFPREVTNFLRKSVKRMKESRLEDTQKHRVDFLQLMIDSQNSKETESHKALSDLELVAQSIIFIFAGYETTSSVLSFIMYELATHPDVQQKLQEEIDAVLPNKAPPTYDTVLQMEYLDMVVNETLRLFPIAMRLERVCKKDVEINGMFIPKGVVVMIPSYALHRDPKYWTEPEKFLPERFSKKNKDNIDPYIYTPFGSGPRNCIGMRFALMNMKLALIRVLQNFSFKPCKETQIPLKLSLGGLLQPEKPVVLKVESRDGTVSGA
The target in series [2] is T7, CYP3A4. Briefly: time-dependent inactivation, midazolam […]'-hydroxylation, LC-MS/MS. Details: recombinant, baculovirus-insect cell expressed, commercial (BD Gentest).
Series [3] has as its target T7, CYP3A4. The series is described as above. Details: native enzyme in pooled human liver microsomes, midazolam 1'-hydroxylation probe (CYP3A5 may contribute). Particulars: microsomes.
A further series deals with T8, CYP2A6 (Homo sapiens, UniProt P11509).
T8 construct: native enzyme in pooled human liver microsomes, coumarin 7-hydroxylation probe
T8 sequence (P11509 1-494): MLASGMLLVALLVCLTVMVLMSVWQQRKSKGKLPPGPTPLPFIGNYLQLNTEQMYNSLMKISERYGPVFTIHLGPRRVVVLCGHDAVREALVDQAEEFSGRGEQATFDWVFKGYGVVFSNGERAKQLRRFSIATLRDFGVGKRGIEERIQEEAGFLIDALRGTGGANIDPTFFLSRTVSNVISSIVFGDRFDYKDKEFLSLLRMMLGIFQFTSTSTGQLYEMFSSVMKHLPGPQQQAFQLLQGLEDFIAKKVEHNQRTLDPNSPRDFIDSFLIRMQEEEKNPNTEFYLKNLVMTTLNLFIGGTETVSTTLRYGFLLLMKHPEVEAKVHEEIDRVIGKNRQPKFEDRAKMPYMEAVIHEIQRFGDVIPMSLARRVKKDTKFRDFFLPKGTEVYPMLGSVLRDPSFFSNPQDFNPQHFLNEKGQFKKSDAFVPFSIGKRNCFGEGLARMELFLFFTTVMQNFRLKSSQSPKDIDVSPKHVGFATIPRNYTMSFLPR
Briefly: coumarin 7-hydroxylation, LC-MS/MS. Particulars: human liver microsomes; no preincubation; NADPH-generating system, pH 7.4, 37°C; read-out: IC50 value / Kushenol A. The text has this:
coumarin 7-hydroxylation, LC-MS/MS on CYP2A6
Background: Microsomes from liver hold many membrane-bound enzymes, among them those of drug oxidation.

[4] abbreviates: read-out: IC50 value / Kushenol A.
[5] abbreviates: read-out: IC50 value / Kushenol I.
[6] abbreviates: read-out: IC50 value / Sophoraflavone G.
Setting [7] is: read-out: IC50 value / Leachianone A.
[8] abbreviates: read-out: IC50 value / Kushenol C.

Structures are written as SMILES. Read-outs that look alike come from different tables or passages of the source.

T1 sequence (P10635 whole entry): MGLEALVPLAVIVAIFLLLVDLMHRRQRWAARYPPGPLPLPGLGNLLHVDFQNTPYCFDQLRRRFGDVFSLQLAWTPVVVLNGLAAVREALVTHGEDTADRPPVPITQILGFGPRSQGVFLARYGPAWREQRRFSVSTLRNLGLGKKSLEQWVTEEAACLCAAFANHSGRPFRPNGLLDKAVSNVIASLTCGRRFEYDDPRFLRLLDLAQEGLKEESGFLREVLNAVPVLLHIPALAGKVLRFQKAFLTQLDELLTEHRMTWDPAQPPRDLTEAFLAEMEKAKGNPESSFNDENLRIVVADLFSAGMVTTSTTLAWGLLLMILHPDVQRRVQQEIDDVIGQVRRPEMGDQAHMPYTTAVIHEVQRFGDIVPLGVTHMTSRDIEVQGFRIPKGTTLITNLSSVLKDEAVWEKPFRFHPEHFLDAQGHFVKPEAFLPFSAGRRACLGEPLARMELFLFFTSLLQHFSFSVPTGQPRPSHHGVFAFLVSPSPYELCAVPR

`C=C(C)[C@H](CC=C(C)C)Cc1c(O)c(CC=C(C)C)c(O)c2c1O[C@H](c1ccc(O)cc1O)[C@@H](O)C2=O` [Kushenol M]: the IC50 at CYP2D6, at CYP1A2 (setting [4]), at CYP2B6 (setting [4]), at CYP2C9 (setting [4]), at CYP2C8 (setting [4]) and on CYP2C19 was above 50 µM throughout. The IC50 at CYP3A4 [1] is above 50 µM.

For `C=C(C)[C@H](CC=C(C)C)Cc1c(O)cc(OC)c2c1O[C@H](c1ccc(O)cc1O)[C@@H](O)C2=O` [Kushenol I], the IC50 on CYP2D6 is above 50 µM; at CYP1A2 (setting [4]), above 50 µM; on CYP2B6 (setting [4]), above 50 µM; on CYP2C9 (setting [5]), 7.35 µM; at CYP2C8 (setting [5]), 0.67 µM; on CYP2C19 it was above 50 µM. Besides, the IC50 at CYP3A4 [1] was above 50 µM. In addition, the KI (inactivation) at CYP3A4 [2] was 0.88 µM; on CYP3A4 [3] it was 0.24 µM.

For the compound `C=C(C)[C@H](CC=C(C)C)Cc1c(O)cc(O)c2c1O[C@H](c1ccc(O)cc1O)CC2=O` [Sophoraflavone G], the IC50 was above 50 µM at CYP2D6; above 50 µM at CYP2A6; 2.26 µM on CYP1A2 (setting [6]); 2.42 µM at CYP2B6 (setting [6]); 1.25 µM at CYP2C9 (setting [6]); 0.32 µM at CYP2C8 (setting [6]). The IC50 on CYP3A4 [1] is above 50 µM.

Regarding `C=C(C)[C@H](CC=C(C)C)Cc1c(O)cc(O)c2c1O[C@H](c1ccc(O)cc1OC)CC2=O` [Leachianone A], the IC50 was above 50 µM at CYP2D6; above 50 µM on CYP1A2 (setting [4]); 5.74 µM at CYP2B6 (setting [7]); above 50 µM on CYP2C9 (setting [4]); 0.75 µM at CYP2C8 (setting [7]); above 50 µM on CYP2C19. For the same compound, the IC50 at CYP3A4 [1] was above 50 µM.

With `C=C(C)[C@H](CC=C(C)C)Cc1c(O)cc(O)c2c1O[C@H](c1ccccc1O)CC2=O` [Kushenol A], the IC50 at CYP2D6, on CYP2A6, at CYP1A2 (setting [4]), on CYP2B6 (setting [4]), at CYP2C9 (setting [4]) and on CYP2C8 (setting [4]) was above 50 µM throughout. Besides, the IC50 on CYP2C19 and on CYP3A4 [1] was above 50 µM in each case.

For the compound `C=C(C)[C@H](CC=C(C)C)Cc1c(O)cc(O)c2c(=O)c(O)c(-c3ccc(O)cc3O)oc12` [Kushenol C], the IC50 is above 50 µM on CYP2D6; 5 µM on CYP1A2 (setting [8]); above 50 µM at CYP2B6 (setting [4]); 9.3 µM on CYP2C9 (setting [8]); above 50 µM at CYP2C8 (setting [4]); above 50 µM at CYP2C19. For the same compound, the IC50 on CYP3A4 [1] was above 50 µM.
